Legend:
[1] = Inhibition of cell division of sea urchin fertilized eggs at 25 uM; format: functional; conditions: Strongylocentrotus intermedius, Egg
[2] = Toxicity in mouse erythrocytes assessed as hemolysis; format: cell-based, Erythrocyte; conditions: read-out: ED50 (the source's name)
[3] = Inhibition of cell division of sea urchin fertilized eggs at 100 uM; format: functional; conditions: Strongylocentrotus intermedius, Egg

Compound | inhibition at 25 µM [1] [%] | HC50 [2] [µM] | inhibition at 100 µM [3] [%]
CO[C@H]1[C@H](OC[C@@H]2O[C@@H](O[C@@H](CC[C@@H](C)[C@H]3C[C@@H](O)[C@@H]4[C@]3(C)CC[C@H]3[C@@]4(O)C[C@H](O)C4C[C@@H](O)CC[C@@]43C)C(C)C)[C@H](O)[C@H]2O)OC[C@@H](O)[C@@H]1O (some centres undefined) [MEDIASTEROSIDE M1] | 100 | 66 | –
CC(C)[C@H](CC[C@@H](C)[C@H]1C[C@@H](O)[C@@H]2[C@]1(C)CC[C@H]1[C@@]2(O)C[C@H](O)C2C[C@@H](O)CC[C@@]21C)O[C@@H]1O[C@@H](CO[C@@H]2OC[C@@H](O)[C@H](O)[C@H]2O)[C@H](O)[C@H]1O (some centres undefined) [MEDIASTEROSIDE M2] | – | 35 | 100
